Here are results for one compound from patent US20070059385A1, “Safe pharmaceutical composition for treating and preventing cancer and method of use” (priority 2005, published 2007).

This series in a line: Metabolism (organ and blood radioactivity) of [^3H]-HHT in P388 mice. The format is in vivo. The settings on record: blood. The procedure:
Animals: Adult DBA/2J male mice, 6 to 8 weeks old. All animals weighed approximately 25 g when used in experiments. Each member of which received identical dosed (i.p.) of HHT.
Tumor: P388 leukemic cells induced in mice by inoculation with L1210 or P388 leukemic cells ([…]).
After P388 induced in mice 5 days, 1 mg/kg of [^3H]-HHT (100 μC/mg) was injected to mice. Volumes were 0.01 ml/g body weight. […] The key data of HHT in metabolism process are determined counts per minute (CPM) of [^3H]-HHT in organs. CPM is determined by liquid scintillation counting (LSC). The methods of LSC combined with radioactive of [^3H]-HHT can be determined using a tracer of HHT in organs. After killed animals, organs and blood were obtained from P388 mice. Organs were weighted. 10 mg of organs were digested. 10 ml of scintillation solution (which containing […]) were added to digested solution and determined at LSC. Other processes are similar to the standard method.

As to `COC(=O)C[C@](O)(CCCC(C)(C)O)C(=O)O[C@@H]1C(OC)=C[C@]23CCCN2CCc2cc4c(cc2[C@H]13)OCO4` [[^3H]-HHT], the “[^3H]-HHT in blood” value reads like this: (1 h) 1820 CPM; (2 h) 1650 CPM; (4 h) 1100 CPM; (8 h) 920 CPM; (16 h) 428 CPM; (24 h) 150 CPM.
